# Assay results reported in US20080221020A1, “Dendrimers as Molecular Translocators” (THE REGENTS OF THE UNIVERSITY OF CALIFORNIA, priority 2002, published 2008).
# How the values were obtained:
# [1] = tested on: HeLa S3 human epithelioid cervical carcinoma cells; test: Cellular uptake of fluorescein-labeled dendrimers, quantified by flow cytometry (FACS); format: cell-based; conditions: for Percentage of Cellular Uptake: 4 hours after treatment, 37° C., average of two experiments; for saturation of uptake into cells: with increasing transporter concentration; for delivery to HeLa S3 cells: qualitative
# Protocol: HeLa S3, human epithelioid cervical carcinoma cells of approximately 50% confluency were treated with concentrations varying from 250 nM to 50 μM of each of the molecular transporters 10, 11, 12, 13, and 41 at 37° C. The molecular transporters were directly added to the media (Dulbecco's modified eagle medium containing 10% fetal bovine serum and 1× antibiotic-antimycotic), and the delivery to the cells was visualized by microscopy.
# Quantification of the uptake of the molecular transporter into the cells was performed by flow cytometry 4 hours after treatment. Adherent cells, grown on 6 well plates, were displaced with trypsin, after which the cells were washed with phosphate-buffered saline (PBS). The final cell pellet was collected by centrifugation and resuspended in PBS to a concentration of approximately 1×10^6 cells/mL. A minimum of 20,000 cell events were counted and analyzed using the FACSCalibur and CellQuest brand software (BD Biosciences, San Jose, Calif.).
# HeLa S3 cells = test: Sulphorhodamine B (SRB) cytotoxicity assay; format: cell-based, human; conditions: 4 hour treatment, concentrations up to 50 μM
# Protocol: The cells were treated with varying concentrations (250 nM to 50 μM) of compound 12 for 4 hours at 37° C. The cells were fixed with trichloroacetic acid and were then subsequently stained with SRB dye. The cells were washed with water, and the SRB-bound complexes were solubilized in Tris buffer. The absorbance at 572 nm was measured in each sample.
# [2] = Solubility in water observed on isolation; format: physicochemical; conditions: isolated salt
solubility in H2O [2],Compound,Percentage of Cellular Uptake ([1]; 250 nM),Percentage of Cellular Uptake ([1]; 500 nM),Percentage of Cellular Uptake ([1]; 1 μM),Percentage of Cellular Uptake ([1]; 5 μM),Percentage of Cellular Uptake ([1]; 10 μM),Percentage of Cellular Uptake ([1]; 25 μM),Percentage of Cellular Uptake ([1]; 50 μM),saturation of uptake into cells [1],delivery to HeLa S3 cells [1],cell lysis (HeLa S3 cells),cytotoxic effect (HeLa S3 cells)
,Cl.Cl.Cl.N=C(N)NCCNC(=O)CCOCC(COCCC(=O)NCCNC(=N)N)(COCCC(=O)NCCNC(=N)N)NC(=O)CCNC(=S)Nc1ccc(-c2c3ccc(=O)cc-3oc3cc(O)ccc23)c(C(=O)O)c1 (stereo not shown) [Compound 10],1.845%,2.89%,2.85%,12.44%,27.91%,59.15%,92.07%,approximately 100%,,,
,Cl.Cl.Cl.Cl.Cl.Cl.N=C(N)NCCNC(=O)CCOCC(COCCC(=O)NCCNC(=N)N)(COCCC(=O)NCCNC(=N)N)NC(=O)CCNC(=O)c1cc(C(=O)NCCNC(=O)CCNC(=S)Nc2ccc(-c3c4ccc(=O)cc-4oc4cc(O)ccc34)c(C(=O)O)c2)cc(C(=O)NCCC(=O)NC(COCCC(=O)NCCNC(=N)N)(COCCC(=O)NCCNC(=N)N)COCCC(=O)NCCNC(=N)N)c1 (stereo not shown) [Compound 11],,,,,,,,approximately 100%,excellent delivery,,
,Cl.Cl.Cl.Cl.Cl.Cl.Cl.Cl.Cl.N=C(N)NCCNC(=O)CCOCC(COCCC(=O)NCCNC(=N)N)(COCCC(=O)NCCNC(=N)N)NC(=O)CCNC(=O)CCOCC(COCCC(=O)NCCC(=O)NC(COCCC(=O)NCCNC(=N)N)(COCCC(=O)NCCNC(=N)N)COCCC(=O)NCCNC(=N)N)(COCCC(=O)NCCC(=O)NC(COCCC(=O)NCCNC(=N)N)(COCCC(=O)NCCNC(=N)N)COCCC(=O)NCCNC(=N)N)NC(=O)CCNC(=S)Nc1ccc(-c2c3ccc(=O)cc-3oc3cc(O)ccc23)c(C(=O)O)c1 (stereo not shown) [Compound 12],,,,,,,,approximately 100%,excellent delivery,did not cause cell lysis,no cytotoxic effect
,Cl.Cl.Cl.Cl.Cl.Cl.Cl.Cl.Cl.Cl.Cl.Cl.N=C(N)NCCNC(=O)CCOCC(COCCC(=O)NCCNC(=N)N)(COCCC(=O)NCCNC(=N)N)NC(=O)CCNC(=O)CCOCC(COCCC(=O)NCCC(=O)NC(COCCC(=O)NCCNC(=N)N)(COCCC(=O)NCCNC(=N)N)COCCC(=O)NCCNC(=N)N)NC(=O)CCNC(=O)CCOCC(COCCC(=O)NCCC(=O)NC(COCCC(=O)NCCC(=O)NC(COCCC(=O)NCCNC(=N)N)(COCCC(=O)NCCNC(=N)N)COCCC(=O)NCCNC(=N)N)COCCC(=O)NCCC(=O)NC(COCCC(=O)NCCNC(=N)N)(COCCC(=O)NCCNC(=N)N)COCCC(=O)NCCNC(=N)N)NC(=O)CCNC(=S)Nc1ccc(-c2c3ccc(=O)cc-3oc3cc(O)ccc23)c(C(=O)O)c1 (stereo not shown) [Compound 13],,,,,,,,approximately 100%,excellent delivery,,
barely soluble in H2O,"N=C(N)NCCNC(=O)CCCCCNC(=O)CCNC(=S)Nc1ccc(-c2c3ccc(=O)cc-3oc3cc(O)ccc23)c(C(=O)O)c1 [Compound 41, 5-(3-{2-[5-(2-Guanidinoethylcarbamoyl)-pentylcarbamoyl]-ethyl}-thioureido)-2-(6-hydroxy-3-oxo-3H-xanthen-9-yl)-benzoic acid]",1.95%,2.065%,3.025%,16.07%,32.4%,67.47%,86.71%,approximately 100%,,,
